Experimental data taken from patent US12329739B2, “Isoflavonoid compounds and methods for the treatment of cancer” (Aardvark Therapeutics, Inc., priority 2010, dated 2025).
Blank lines part the entries; values can stand above or below the compound they belong to.

How the values were obtained:
MDA-MB-468 = test: MTT proliferation assay, MDA-MB-468; format: cell-based, human
Procedure: The human gastric cancer cell line AGS (CRL-1739) was cultured in Hams F-12K (Kaighans modification) medium containing 2 mM L-glutamine, 2.5 g/L sodium bicarbonate and 2 mM sodium pyruvate. The human breast adenocarcinoma line MDA-MB-468 (HTB-132) was cultured in DMEM:F12 (1:1) medium containing 2.5 mM L-glutamine, 2.4 g/L sodium bicarbonate, supplemented with an additional 2 mM L-glutamine.
(§1) Proliferation Assays. IC50 values were determined for each cell line. Cells were seeded in 96-well plates at an appropriate cell density as determined from growth kinetics analysis and cultured for 5 days in the absence and presence of the test compounds. Cell proliferation was assessed after the addition of 20 μl of 3-4,5 dimethylthiazol-2,5-diphenyl tetrazolium bromide (MTT, 5 mg/ml in PBS, Sigma) for 5 hrs at 37° C. according to manufacturer's instructions. IC50 values were calculated from semi-log plots of % of control proliferation on the y-axis against log dose on the x-axis.
(§2) Anti-proliferative Activity of Isoflavonoid Derivatives. IC50 values were determined for each cell line after 120 h of exposure.

A2058 = test: MTT proliferation assay, A2058; format: cell-based; details: Homo sapiens, A2058, 120 h
Procedure: as §1, §2

PC3 = test: MTT proliferation assay, PC3; format: cell-based
Procedure: as §1, §2

MM2200 = test: MTT proliferation assay, MM2200; format: cell-based; details: Table 2, Melanoma, MM2200, 120 hrs of exposure
Procedure: as §1, §2
Activity data is provided is Table 2.

CP70 = test: MTT proliferation assay, CP70; format: cell-based
Procedure: as §1, §2

A2780 = test: MTT proliferation assay, A2780; format: cell-based
Procedure: as §1, §2

[1] = test system: A2780 ovarian cancer cells; test: Combination with carboplatin, proliferation of A2780 cells; format: cell-based; details: for enhancement of the anti-cancer effect of carboplatin: A2780, depending on exposure regimen (24 hr concurrent or sequential)
Procedure: In vitro toxicity in normal and cancer cells. Cells were seeded in 96-well plates at an appropriate cell density as determined from growth kinetics analysis. Depending on the plating efficiency and lag phase of individual cell lines, cells were allowed to plate down prior to drug exposure. Intra-experimental single agent controls were included to ensure IC50 values obtained for each cell line matched previous IC50 determinations. Four analogue concentrations were employed in each analysis. Analogue concentrations used in each assay were chosen based on IC50 values, which formed the top concentration of analogue used. Subsequent concentrations were chosen based on simple ½ or 1/10 dilutions of the top analogue concentration employed (i.e. 2, 1, 0.5, 0.25 μM). Nine 1/10 serial dilutions of chemotherapeutic were employed with the top chemotherapeutic concentration being 50 μM.
For combined analysis, analogue concentrations were held constant through 1/10 serial dilutions of chemotherapeutic in growth medium (top chemotherapeutic concentration employed was 50 μM). Combined cultures were cultured for 5 days.
The sequence of administration effect of each agent on chemotherapeutic IC50 values was assessed by exposing plated cells to a single agent in sequence for 24 hr. To assess the isoflavonoid derivative→chemotherapeutic sequence, plated cells were first exposed to the appropriate analogue concentrations and incubated at 37° C. for 24 hr. Cells were washed with growth medium and then exposed to the appropriate chemotherapeutic concentrations and incubated for 24 hr. Cells were then washed and incubated for a further 3 days. To assess the chemotherapeutic→isoflavonoid derivative sequence, the procedure was reversed.
Cell proliferation was assessed after the addition of 20 μl of 3-4,5 dimethylthiazol-2,5-diphenyl tetrazolium bromide (MTT, 2.5 mg/ml in PBS, Sigma) for 3-4 hrs at 37° C. according to manufacturer's instructions. IC50 values were calculated from semi-log plots of % of control proliferation on the y-axis against log dose on the x-axis.
3-D model analysis of the cytotoxic interaction between drug A and drug B enables the representation of predicted inhibitory effect of two drugs in combination in 3 dimensions to reveal actual regions of synergy or antagonism. The 3D synergy plots are based on a theory of “Theoretical Additivity” (TA or […]) as outlined by Kanzawa et al. Theoretical Additivity was calculated from the cytotoxicities of drug A and drug B as monotherapies using the following formula which assumes the drugs are mutually exclusive inhibitors: […]
The TA is calculated for each combination of drug concentrations and subtracted from the observed experimental effect for each combination to give a measurement of synergistic or enhanced action.
Combination index (CI) analysis, which employs the median-effect principle correlating drug dose to cytotoxicity, was also employed to assess synergy. The median-effect equation is utilized to calculate the dose of a drug that inhibits “x” percent of cells (Chou and Talalay, 1984). D=Dm[fa/(1−fa)]^1/m
In vitro Assessment of Combination of Optically Active Compound 31 and Carboplatin. Combination studies employed both 24 hr concurrent exposure, and 24 hr sequential exposure (racemic compound 32→Carboplatin) regimens. In both studies, four analogue concentrations (0.25, 0.5, 1 and 5 μM) were held constant against titrated carboplatin. When 1 and 5 μM of compound 32 was assessed in combination with the lowest concentration of carboplatin employed in this study (0.4 μM), no IC50 for carboplatin was achieved due the high levels of cell kill observed (30-40% of control).

SKBR-3 = test: MTT proliferation assay, SKBR-3; format: cell-based, human
Procedure: The human colorectal adenocarcinoma line HCT-116 (CCL-247) and the human breast adenocarcinoma line SK-BR-3 (HTB-30) were cultured in McCoy's 5a Medium (Invitrogen) containing 1.5 mM L-glutamine and 2.2 g/L sodium bicarbonate. The human colorectal adenocarcinoma line SW620 (CCL-227) was cultured in Leibovitz's L-15 Medium (Invitrogen) containing 2.05 mM L-glutamine.
as §1, §2

CALU3 = test: MTT proliferation assay, CALU3; format: cell-based; details: Homo sapiens, Calu-3; NSCLC, CALU3, 120 h of exposure
Procedure: as §1, §2

R-182 = test: MTT proliferation assay, R-182; format: cell-based; details: Ovarian, R-182, 120 h of exposure
Source text: Tissue culture. The multidrug resistant primary epithelial ovarian cancer cell line R-182 TARA was a gift from Dr. Gil Mor (Yale University, New Haven, CT, USA). This cell line was derived by explant from ovarian tumors and cultured as previously described. All other cell lines were purchased from American Type Culture Collection (ATCC, Manassas, VA, USA) with the exception of MKN1, HuH-7, JHH-1, which were purchased from the Japanese Collection of Research Bioresources (JCRB, Osaka, Japan), and OE19 which was purchased from the European Collection of Cell Cultures (ECACC, Salisbury, UK).
as §1, §2

DU145 = test: MTT proliferation assay, DU145; format: cell-based; details: Homo sapiens, DU-145; Prostate, DU145, 120 h of exposure
Procedure: as §1, §2

A549 = test: MTT proliferation assay, A549; format: cell-based; details: Homo sapiens; NSCLC, A549, 120 h of exposure
Procedure: as §1, §2

NCI-H460 = test: MTT proliferation assay, NCI-H460; format: cell-based, human; details: Homo sapiens; NSCLC, NCI-H460, 120 h of exposure
Procedure: (§3) The human non-small cell lung adenocarcinoma lines NCI-H1299 (CRL-5803), NCI-H460 (HTB-177), NCI-H358 (CRL-5807), NCI-H838 (CRL-5844), the human colorectal adenocarcinoma lines COLO 205 (CCL-222), HCT-15 (CCL-225) and the human gastric cancer cell line NCI-N87 (CRL-5822) were cultured in RPMI 1640 medium containing 2 g/L sodium bicarbonate (Hyclone/Invitrogen) supplemented with 2 mM L-glutamine (Gibco) 1 mM sodium pyruvate (Sigma), 10 mM HEPES (Sigma) and 4500 mg/L glucose (Sigma). The human non-small cell lung adenocarcinoma line NCI-H2126 (CCL-256) was cultured in DMEM:F12(1:1) (Hyclone/Invitrogen) containing 2.5 mM L-glutamine 2.4 g/L sodium bicarbonate supplemented with 5% fetal bovine serum (FBS), an additional 2 mM L-glutamine, 15 mM HEPES, 0.005 mg/ml insulin (Sigma), 0.01 mg/ml transferrin (Sigma), 30 nM sodium selenite (Sigma), 10 nM hydrocortisone (Sigma) and 10 nM beta-estradiol (Sigma). The human colorectal adenocarcinoma line HT-29 (HTB-38) and the human gastric cancer cell lines OE-19 (#96071721) and MKN1 (JCRB0252) were cultured in RPMI 1640 media supplemented with 2 mM L-glutamine.
as §1, §2

MM200 = test: MTT proliferation assay, MM200; format: cell-based; details: Melanoma, MM200, 120 h of exposure
Procedure: as §1, §2

HepG2 = test: MTT proliferation assay, HepG2; format: cell-based, human; details: Homo sapiens; Liver, HepG2, 120 h of exposure
Procedure: (§4) The human hepatocellular carcinoma lines HepG2 (HB-8065), SK-HEP-1 (HTB-52) and the normal human lung fibroblast line IMR-90 (CCL-186) were cultured in Minimum Essential Eagles Medium containing 2 mM L-glutamine, 2.2 g/L sodium bicarbonate, supplemented with 1 mM sodium pyruvate and 0.1 mM non-essential amino acids. The human hepatocellular carcinoma line JHH-1 (JCRB1062) was cultured in Williams E Medium (Invitrogen) containing 2.2 g/L sodium bicarbonate, supplemented with 2 mM L-glutamine. The hepatocellular carcinoma line HuH-7 (JCRB0403) was cultured in DMEM, supplemented with 2 mM L-glutamine.
as §1, §2

4405 = test: MTT proliferation assay, 4405; format: cell-based; details: Melanoma, 4405, 120 h of exposure
Procedure: as §1, §2

SK-Hep-1 = test: MTT proliferation assay, SK-Hep-1; format: cell-based, human; details: Homo sapiens, SK-HEP1; Liver, SK-Hep-1, 120 h of exposure
Procedure: as §4, §1, §2

HuH-7 = test: MTT proliferation assay, HuH-7; format: cell-based, human; details: Homo sapiens; Liver, HuH-7, 120 h of exposure
Procedure: as §4, §1, §2

LNCaP = test: MTT proliferation assay, LNCaP; format: cell-based; details: Homo sapiens, Prostate, 120 h of exposure
Procedure: as §1, §2

COLO205 = test: MTT proliferation assay, COLO205; format: cell-based, human; details: Homo sapiens, COLO 205; CRC, COLO205, 120 h of exposure
Procedure: as §3, §1, §2

- IC50 (MDA-MB-468; Table 2, Breast, MDA-MB-468, 120 hrs of exposure): 0.51 to 1.5 µM
- IC50 (PC3; Table 2, Prostate, PC3, 120 hrs of exposure): 0.51 to 1.5 µM
- IC50 (A2780; Table 2, Ovarian, A2780, 120 hrs of exposure): 0.51 to 1.5 µM
- IC50 (SKBR-3; Table 2, Breast, SKBR-3, 120 hrs of exposure): 0.51 to 1.5 µM
Structure (SMILES): Oc1ccc([C@H]2c3ccc(O)cc3OC[C@H]2c2ccc(O)cc2)cc1 (racemic) [Compound 32]
- IC50 (A2058; Table 2, Melanoma, A2058, 120 hrs of exposure): 0.15 to 0.5 µM
- IC50 (MM2200): 0.51 to 1.5 µM
- IC50 (CP70; Table 2, Ovarian, CP70, 120 hrs of exposure): 0.51 to 1.5 µM
- enhancement of the anti-cancer effect of carboplatin ([1]; 0.25 μM of compound): 1.5-2 fold
- enhancement of the anti-cancer effect of carboplatin ([1]; 0.5 μM of compound): 7-11 fold
- cell kill level observed (no IC50 for carboplatin achieved) ([1]; 1 and 5 μM of compound plus 0.4 μM carboplatin, A2780): 30-40 % of control
- compound concentration giving maximal activity enhancement with carboplatin ([1]; 3D method of Kanzawa, 12.5 μM carboplatin, A2780): 0.5 µM

- IC50 (A2780; Homo sapiens, A2780, 120 h, Table 2, Ovarian, A2780, 120 hrs of exposure): ≥ 10 µM
- IC50 (SKBR-3; Homo sapiens, SK-BR-3, 120 h, Table 2, Breast, SKBR-3, 120 hrs of exposure): ≥ 10 µM
Structure (SMILES): Oc1ccc([C@@H]2c3ccc(O)cc3OC[C@@H]2c2ccc(O)cc2)cc1 [Compound 33]
- IC50 (MM2200): ≥ 10 µM
- IC50 (CP70; 120 h, Table 2, Ovarian, CP70, 120 hrs of exposure): ≥ 10 µM
- activity enhancement in combination with carboplatin ([1]; A2780 cell line, 31 compared with compound 32): did not impart any activity enhancement or antagonistic effect

- IC50 (MDA-MB-468; Homo sapiens, MDA-MB-468, 120 h, Breast, MDA-MB-468, 120 h of exposure): ≥ 10 µM
- IC50 (CALU3): ≥ 10 µM
- IC50 (PC3; Homo sapiens, PC-3, 120 h, Prostate, PC3, 120 h of exposure): ≥ 10 µM
- IC50 (DU145): ≥ 10 µM
- IC50 (A549): ≥ 10 µM
- IC50 (NCI-H460): ≥ 10 µM
- IC50 (HepG2): ≥ 10 µM
- IC50 (SK-Hep-1): ≥ 10 µM
- IC50 (HuH-7): ≥ 10 µM
- IC50 (A2780; Homo sapiens, A2780, 120 h, Ovarian, A2780, 120 h of exposure): ≥ 10 µM
- IC50 (LNCaP): ≥ 10 µM
- IC50 (COLO205): ≥ 10 µM
- IC50 (SKBR-3; Homo sapiens, SK-BR-3, 120 h, Breast, SKBR-3, 120 h of exposure): ≥ 10 µM
Structure (SMILES): Cc1c(O)ccc2c1OC[C@H](c1ccc(O)cc1)[C@@H]2c1ccc(O)cc1 [l-5, l-cis-3-(4-hydroxyphenyl)-4-(4-hydroxyphenyl)-8-methylchroman-7-ol]
- IC50 (A2058; Melanoma, A2058, 120 h of exposure): ≥ 10 µM
- IC50 (R-182): ≥ 10 µM
- IC50 (MM200): ≥ 10 µM
- IC50 4405: ≥ 10 µM
- IC50 (CP70; 120 h, Ovarian, CP70, 120 h of exposure): ≥ 10 µM
